Reference: ChEMBL document CHEMBL5055644, “Cysteine derivatives as acetyl lysine mimics to inhibit zinc-dependent histone deacetylases for treating cancer” (Eur J Med Chem, 2021)
The source made the active and inactive calls. The calls are words filed in the database; no cut-off is given here.

Assays:
A549 [1] = experiment: Antitumor activity against human A549 cells xenografted in BALB/c mouse assessed as reduction in tumor volume when administered intratumorally for 21 days; assay type: functional; conditions: dose 0.75-1.5 mg, route it(Intratumoral), time 21.0 day
A549 [2] = experiment: Induction of apoptosis in human A549 cells at 1 to 10 uM after 48 hrs by Annexin-V/propidium iodide staining based flow cytometric analysis; assay type: functional, cell-based; conditions: dose 1-10 µM
Mus musculus [3] = experiment: In vivo inhibition of HDAC in BALB/c mouse xenografted with human A549 cells assessed as increase in H3 histone at 25 to 50 mg/kg, iv administered for 3 weeks by immunohistochemical analysis; assay type: functional, organism-based; conditions: dose 25-50 mg/kg
[4] = target: Protein deacetylase HDAC6 (Mus musculus) (UniProt Q9Z2V5); experiment: In vivo inhibition of HDAC6 in BALB/c mouse xenografted with human A549 cells assessed as increase in alpha tubulin acetylation at 25 to 50 mg/kg, iv administered for 3 weeks by immunohistochemical analysis; assay type: functional, organism-based; conditions: dose 25-50 mg/kg
Chain of Protein deacetylase HDAC6 (Mus musculus) (Q9Z2V5 whole entry): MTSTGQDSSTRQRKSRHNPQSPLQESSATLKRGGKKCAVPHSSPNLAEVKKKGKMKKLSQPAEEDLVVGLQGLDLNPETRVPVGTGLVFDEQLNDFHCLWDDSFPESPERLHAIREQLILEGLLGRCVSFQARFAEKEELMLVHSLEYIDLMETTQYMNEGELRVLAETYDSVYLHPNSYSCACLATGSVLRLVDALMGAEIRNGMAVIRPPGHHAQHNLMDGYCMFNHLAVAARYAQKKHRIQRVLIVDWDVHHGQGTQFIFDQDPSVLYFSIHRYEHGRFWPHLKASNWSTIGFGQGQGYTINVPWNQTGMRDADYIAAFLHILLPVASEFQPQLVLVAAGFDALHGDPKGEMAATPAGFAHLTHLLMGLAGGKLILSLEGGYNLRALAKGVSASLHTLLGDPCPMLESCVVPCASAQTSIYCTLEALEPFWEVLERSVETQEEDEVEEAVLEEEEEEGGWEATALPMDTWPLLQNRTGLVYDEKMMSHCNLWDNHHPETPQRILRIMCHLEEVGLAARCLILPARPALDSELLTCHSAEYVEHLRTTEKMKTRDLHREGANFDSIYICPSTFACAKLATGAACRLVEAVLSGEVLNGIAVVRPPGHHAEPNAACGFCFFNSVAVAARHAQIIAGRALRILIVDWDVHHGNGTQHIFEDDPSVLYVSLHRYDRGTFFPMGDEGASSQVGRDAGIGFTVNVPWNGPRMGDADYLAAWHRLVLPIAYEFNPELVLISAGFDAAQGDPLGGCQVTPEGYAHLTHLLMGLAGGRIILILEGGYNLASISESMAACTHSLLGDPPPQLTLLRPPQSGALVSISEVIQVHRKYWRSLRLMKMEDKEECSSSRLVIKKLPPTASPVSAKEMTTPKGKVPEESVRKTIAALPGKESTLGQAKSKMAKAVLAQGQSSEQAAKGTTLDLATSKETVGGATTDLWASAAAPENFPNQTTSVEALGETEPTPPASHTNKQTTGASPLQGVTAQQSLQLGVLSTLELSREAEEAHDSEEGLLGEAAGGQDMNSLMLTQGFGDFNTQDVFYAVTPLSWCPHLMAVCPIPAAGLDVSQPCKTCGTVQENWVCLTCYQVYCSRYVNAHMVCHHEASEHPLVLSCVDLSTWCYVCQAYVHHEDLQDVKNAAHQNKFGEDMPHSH

A549 [5] = experiment: Antitumor activity against human A549 cells xenografted in BALB/c mouse assessed as tumor growth inhibition at low dose when administered intratumorally for 21 days relative to control; assay type: functional; conditions: route it(Intratumoral); time 21 day
A549 [6] = experiment: Antitumour activity against human A549 cells xenografted in BALB/c mouse assessed as tumor growth inhibition at 50 mg/kg,iv administered for 3 weeks relative to control; assay type: functional; conditions: A549, 504 h, read-out: TGI
[7] = Acute toxicity in BALB/c mouse assessed as effect on body weight at up to 2000 mg/kg, po; assay type: organism-based; conditions: in vivo
[8] = target: Class 1 histone deacetylase (Homo sapiens) (UniProt Q13547+O15379+Q92769+Q9BY41); experiment: Inhibition of class 1 HDAC in human A549 cells assessed as increase in histone H3/H4 acetylation at 10 uM measured after 8 hrs by Western blot analysis; assay type: cell-based
Chain of Class 1 histone deacetylase (Homo sapiens) (O15379 whole entry, looked up): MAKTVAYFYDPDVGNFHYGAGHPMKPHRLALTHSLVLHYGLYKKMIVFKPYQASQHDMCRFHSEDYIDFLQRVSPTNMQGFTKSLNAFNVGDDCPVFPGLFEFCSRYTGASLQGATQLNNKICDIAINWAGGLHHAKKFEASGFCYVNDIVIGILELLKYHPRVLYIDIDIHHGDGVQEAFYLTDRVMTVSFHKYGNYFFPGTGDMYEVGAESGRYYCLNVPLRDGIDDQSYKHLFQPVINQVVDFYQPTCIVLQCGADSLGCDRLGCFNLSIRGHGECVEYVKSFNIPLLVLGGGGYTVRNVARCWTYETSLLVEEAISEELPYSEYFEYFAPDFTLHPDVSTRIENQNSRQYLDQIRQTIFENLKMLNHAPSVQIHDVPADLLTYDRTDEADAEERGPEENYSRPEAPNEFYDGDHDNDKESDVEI
Chain of Class 1 histone deacetylase (Homo sapiens) (Q13547 whole entry, looked up): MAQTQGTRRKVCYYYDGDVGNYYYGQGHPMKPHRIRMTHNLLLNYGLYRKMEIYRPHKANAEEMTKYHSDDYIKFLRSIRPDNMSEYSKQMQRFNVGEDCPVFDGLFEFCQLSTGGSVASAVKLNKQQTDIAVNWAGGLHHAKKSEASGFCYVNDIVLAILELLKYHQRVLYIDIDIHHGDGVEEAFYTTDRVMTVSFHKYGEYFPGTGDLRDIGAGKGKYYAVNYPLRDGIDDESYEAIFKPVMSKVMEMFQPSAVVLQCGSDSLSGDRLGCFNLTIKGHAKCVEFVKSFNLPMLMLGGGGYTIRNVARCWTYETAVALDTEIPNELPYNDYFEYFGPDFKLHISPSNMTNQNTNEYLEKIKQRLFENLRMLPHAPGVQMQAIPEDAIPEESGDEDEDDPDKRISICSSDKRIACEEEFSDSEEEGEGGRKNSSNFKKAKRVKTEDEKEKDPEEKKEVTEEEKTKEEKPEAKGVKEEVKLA
Chain of Class 1 histone deacetylase (Homo sapiens) (Q92769 whole entry, looked up): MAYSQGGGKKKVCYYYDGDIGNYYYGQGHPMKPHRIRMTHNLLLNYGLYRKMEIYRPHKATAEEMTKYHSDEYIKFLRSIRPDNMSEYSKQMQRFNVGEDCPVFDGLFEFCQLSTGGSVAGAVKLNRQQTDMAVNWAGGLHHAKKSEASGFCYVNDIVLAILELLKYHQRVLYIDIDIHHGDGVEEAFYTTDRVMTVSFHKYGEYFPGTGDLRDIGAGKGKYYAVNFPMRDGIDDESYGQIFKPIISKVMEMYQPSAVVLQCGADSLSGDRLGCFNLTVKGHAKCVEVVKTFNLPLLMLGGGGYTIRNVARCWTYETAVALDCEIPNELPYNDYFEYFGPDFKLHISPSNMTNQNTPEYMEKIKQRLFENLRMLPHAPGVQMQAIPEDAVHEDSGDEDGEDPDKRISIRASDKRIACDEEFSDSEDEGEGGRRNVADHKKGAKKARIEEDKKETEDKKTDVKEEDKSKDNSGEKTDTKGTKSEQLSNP
Chain of Class 1 histone deacetylase (Homo sapiens) (Q9BY41 whole entry, looked up): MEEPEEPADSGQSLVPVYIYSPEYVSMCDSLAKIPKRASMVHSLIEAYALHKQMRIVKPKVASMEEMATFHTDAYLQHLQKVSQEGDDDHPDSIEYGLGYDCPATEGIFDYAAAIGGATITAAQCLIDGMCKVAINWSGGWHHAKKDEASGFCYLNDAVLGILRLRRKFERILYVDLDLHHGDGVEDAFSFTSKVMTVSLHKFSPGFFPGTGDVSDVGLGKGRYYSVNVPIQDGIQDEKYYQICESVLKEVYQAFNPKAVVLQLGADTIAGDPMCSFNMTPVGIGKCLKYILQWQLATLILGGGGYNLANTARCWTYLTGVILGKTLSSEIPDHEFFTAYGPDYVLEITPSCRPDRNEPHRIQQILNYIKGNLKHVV

K562 [9] = experiment: Induction of apoptosis in human K562 cells assessed as upregulation of BaX protein expression at 10 uM measured after 8 hrs by Western blot analysis; assay type: functional, cell-based
[10] = target: T1, Protein deacetylase HDAC6 (Homo sapiens) (UniProt Q9UBN7); experiment: Inhibition of HDAC6 in human A549 cells assessed as increase in alpha tubulin acetylation at 10 uM measured after 8 hrs by Western blot analysis; assay type: cell-based
T1 sequence (whole entry): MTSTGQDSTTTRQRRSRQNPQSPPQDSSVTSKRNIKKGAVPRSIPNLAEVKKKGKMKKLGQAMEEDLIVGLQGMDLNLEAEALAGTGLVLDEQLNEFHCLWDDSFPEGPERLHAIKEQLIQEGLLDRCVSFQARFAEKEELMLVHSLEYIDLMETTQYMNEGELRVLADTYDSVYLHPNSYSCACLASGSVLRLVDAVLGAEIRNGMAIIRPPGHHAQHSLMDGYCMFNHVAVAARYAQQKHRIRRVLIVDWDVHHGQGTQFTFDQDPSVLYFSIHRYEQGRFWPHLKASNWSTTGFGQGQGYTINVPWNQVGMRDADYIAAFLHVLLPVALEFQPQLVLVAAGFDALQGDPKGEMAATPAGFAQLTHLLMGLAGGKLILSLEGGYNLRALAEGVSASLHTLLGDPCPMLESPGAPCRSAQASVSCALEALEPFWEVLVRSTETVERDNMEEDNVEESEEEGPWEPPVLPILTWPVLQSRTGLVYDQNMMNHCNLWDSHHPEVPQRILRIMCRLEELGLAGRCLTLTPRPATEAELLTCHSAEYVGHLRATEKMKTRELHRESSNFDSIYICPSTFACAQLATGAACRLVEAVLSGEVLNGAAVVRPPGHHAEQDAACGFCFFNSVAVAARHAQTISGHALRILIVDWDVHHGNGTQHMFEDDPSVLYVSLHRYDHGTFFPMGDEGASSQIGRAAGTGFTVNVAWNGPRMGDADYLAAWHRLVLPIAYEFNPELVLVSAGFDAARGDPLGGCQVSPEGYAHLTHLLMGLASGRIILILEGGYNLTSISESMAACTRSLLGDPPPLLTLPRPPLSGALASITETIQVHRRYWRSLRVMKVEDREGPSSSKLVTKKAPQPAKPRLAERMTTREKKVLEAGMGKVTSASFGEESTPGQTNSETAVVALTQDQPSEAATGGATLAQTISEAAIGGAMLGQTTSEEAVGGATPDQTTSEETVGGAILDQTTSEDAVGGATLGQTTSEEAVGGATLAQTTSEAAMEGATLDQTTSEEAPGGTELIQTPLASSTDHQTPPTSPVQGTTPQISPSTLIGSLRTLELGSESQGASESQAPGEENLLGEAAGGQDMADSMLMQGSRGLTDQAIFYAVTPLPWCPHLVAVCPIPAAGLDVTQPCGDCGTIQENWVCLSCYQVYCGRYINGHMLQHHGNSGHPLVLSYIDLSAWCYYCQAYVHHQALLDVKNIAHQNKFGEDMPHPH

A549 [11] = experiment: Upregulation of p21 in human A549 cells up to 10 uM measured after 8 hrs by Western blot analysis; assay type: functional, cell-based
[12] = Acute toxicity in BALB/c mouse assessed as effect on normal behaviour at up to 2000 mg/kg, po; assay type: organism-based; conditions: in vivo
K562 [13] = experiment: Induction of apoptosis in human K562 cells assessed as increased cleaved caspase 3 at 10 uM measured after 8 hrs by Western blot analysis; assay type: functional, cell-based
[14] = Acute toxicity in po dosed BALB/c mouse assessed as lethal dose; assay type: organism-based; conditions: in vivo
K562 [15] = experiment: Induction of apoptosis in human K562 cells assessed as downregulation of Bcl-2 protein at 10 uM measured after 8 hrs by Western blot analysis; assay type: functional, cell-based
[16] = target: T1, Protein deacetylase HDAC6 (Homo sapiens); experiment: Inhibition of HDAC6 in human A549 cells assessed as increase in alpha tubulin acetylation measured after 24 hrs by Immunofluorescent assay; assay type: cell-based
A549 [17] = experiment: Antitumor activity against human A549 cells xenografted in BALB/c mouse assessed as tumor growth inhibition at high dose when administered intratumorally for 21 days relative to control; assay type: functional; conditions: route it(Intratumoral); time 21 day
Mus musculus [18] = experiment: Toxicity in BALB/c mouse xenografted with human A549 cells assessed as effect on body weight at 25 to 50 mg/kg, iv measured after 21 days; assay type: organism-based; conditions: in vivo, 504 h, dose 25-50 mg/kg, time 21 day

Which results are given for `O=C(CCCSC[C@H](NC(=O)c1ccccc1)C(=O)Nc1ccccc1)NO`?
Activity (A549 [1]): Dose-dependent effect; Activity (A549 [2]): Active; inhibition (Mus musculus [3]): Active; inhibition [4]: Active; TGI (A549 [5]): 44%; inhibition in vivo at 50 mg/kg (A549 [6]): 75%; Activity [7]: Non-Toxic; inhibition [8]: Active; Activity (K562 [9]): Active; inhibition [10]: Active; Activity (A549 [11]): Active; Activity [12]: Non-Toxic; Activity (K562 [13]): Active; LD50 [14]: > 2000 mg/kg; Activity (K562 [15]): Active; inhibition [16]: Dose-dependent effect; TGI (A549 [17]): 72%; Activity (Mus musculus [18]): Non-Toxic
